Assay results published in ChEMBL document CHEMBL3785036 (J Pharm Sci, 1974).

Assays:
Assay type in all cases: ADME, organism-based
[1] = Drug excretion in human subject slow inactivator assessed as total isonicotinoyl compound level in urine at 681 mg, iv infused at constant rate 5.4 min measured 150 mins after start of drug injection by colorimetry; conditions: in vivo, 2.5 h
[2] = Drug metabolism in human rapid inactivators assessed as excretion of acetylisoniazid in urine at 1 g, iv by colorimetry; conditions: in vivo
[3] = Drug excretion in human subject slow inactivator assessed as sum of isoniazid plus hydrazones, acetylisoniazid, isonicotinic acid and isonicotinuric acid level in urine at 681 mg, iv infused at constant rate 5.4 min measured 243.5 mins after start of drug injection by colorimetry; conditions: in vivo
[4] = Drug excretion in human subject slow inactivator assessed as total isonicotinoyl compound level in urine at 681 mg, iv infused at constant rate 5.4 min measured 35.5 mins after start of drug injection by colorimetry; conditions: in vivo
[5] = Drug excretion in human subject slow inactivator assessed as total isonicotinoyl compound level in urine at 681 mg, iv infused at constant rate 5.4 min measured 305 mins after start of drug injection by colorimetry; conditions: in vivo
[6] = Drug excretion in human subject slow inactivator assessed as total isonicotinoyl compound level in urine at 681 mg, iv infused at constant rate 5.4 min measured 116 mins after start of drug injection by colorimetry; conditions: in vivo
[7] = Drug excretion in human subject rapid inactivator assessed as total isonicotinoyl compound level in urine at 670 mg, iv infused at constant rate 5.2min measured 126 mins after start of drug injection by colorimetry; conditions: in vivo, 2.1 h
[8] = Drug excretion in human slow inactivators urine assessed as acetylisoniazid level at 1 g, iv by colorimetry; conditions: in vivo
[9] = Drug excretion in human subject slow inactivator assessed as sum of isoniazid plus hydrazones, acetylisoniazid, isonicotinic acid and isonicotinuric acid level in urine at 681 mg, iv infused at constant rate 5.4 min measured 59.1 mins after start of drug injection by colorimetry; conditions: in vivo, 0.985 h
[10] = Drug metabolism in human slow inactivators assessed as excretion of 1,2-diacetylhydrazine in urine at 1 g, iv by colorimetry; conditions: in vivo
[11] = Drug excretion in human subject slow inactivator assessed as sum of isoniazid plus hydrazones, acetylisoniazid, isonicotinic acid and isonicotinuric acid level in urine at 681 mg, iv infused at constant rate 5.4 min measured 710 mins after start of drug injection by colorimetry; conditions: in vivo
[12] = Drug excretion in human subject rapid inactivator assessed as sum of isoniazid plus hydrazones, acetylisoniazid, isonicotinic acid and isonicotinuric acid level in urine at 670 mg, iv infused at constant rate 5.2min measured 195 mins after start of drug injection by colorimetry; conditions: in vivo, 3.25 h
[13] = Drug excretion in human subject slow inactivator assessed as sum of isoniazid plus hydrazones, acetylisoniazid, isonicotinic acid and isonicotinuric acid level in urine at 681 mg, iv infused at constant rate 5.4 min measured 496 mins after start of drug injection by colorimetry; conditions: in vivo
[14] = Drug excretion in human subject rapid inactivator assessed as sum of isoniazid plus hydrazones, acetylisoniazid, isonicotinic acid and isonicotinuric acid level in urine at 670 mg, iv infused at constant rate 5.2min measured 426 mins after start of drug injection by colorimetry; conditions: in vivo
[15] = Drug metabolism in human slow inactivators assessed as excretion of isonicotinic acid in urine at 1 g, iv by colorimetry; conditions: in vivo
[16] = Drug excretion in human subject slow inactivator assessed as sum of isoniazid plus hydrazones, acetylisoniazid, isonicotinic acid and isonicotinuric acid level in urine at 681 mg, iv infused at constant rate 5.4 min measured 648 mins after start of drug injection by colorimetry; conditions: in vivo
[17] = Drug excretion in human subject rapid inactivator assessed as sum of isoniazid plus hydrazones, acetylisoniazid, isonicotinic acid and isonicotinuric acid level in urine at 670 mg, iv infused at constant rate 5.2min measured 158 mins after start of drug injection by colorimetry; conditions: in vivo
[18] = Drug excretion in human subject rapid inactivator assessed as total isonicotinoyl compound level in urine at 670 mg, iv infused at constant rate 5.2min measured 227 mins after start of drug injection by colorimetry; conditions: in vivo
[19] = Drug excretion in human rapid inactivators urine assessed as isoniazid plus hydrazones level at 1 g, iv by colorimetry; conditions: in vivo
[20] = Drug metabolism in human rapid inactivators assessed as excretion of isonicotinuric acid in urine at 1 g, iv by colorimetry; conditions: in vivo
[21] = Drug excretion in human subject rapid inactivator assessed as sum of isoniazid plus hydrazones, acetylisoniazid, isonicotinic acid and isonicotinuric acid level in urine at 670 mg, iv infused at constant rate 5.2min measured 259 mins after start of drug injection by colorimetry; conditions: in vivo
[22] = Drug excretion in human subject slow inactivator assessed as total isonicotinoyl compound level in urine at 681 mg, iv infused at constant rate 5.4 min measured 747 mins after start of drug injection by colorimetry; conditions: in vivo, 12.45 h
[23] = Drug metabolism in human slow inactivators assessed as excretion of alpha-ketoglutaric acid isonicotinoylhydrazone in urine at 1 g, iv by colorimetry; conditions: in vivo
[24] = Drug excretion in human subject rapid inactivator assessed as sum of isoniazid plus hydrazones, acetylisoniazid, isonicotinic acid and isonicotinuric acid level in urine at 670 mg, iv infused at constant rate 5.2min measured 335 mins after start of drug injection by colorimetry; conditions: in vivo
[25] = Drug excretion in human subject rapid inactivator assessed as total isonicotinoyl compound level in urine at 670 mg, iv infused at constant rate 5.2min measured 259 mins after start of drug injection by colorimetry; conditions: in vivo
[26] = Drug excretion in human subject slow inactivator assessed as sum of isoniazid plus hydrazones, acetylisoniazid, isonicotinic acid and isonicotinuric acid level in urine at 681 mg, iv infused at constant rate 5.4 min measured 466 mins after start of drug injection by colorimetry; conditions: in vivo
[27] = Drug excretion in human subject slow inactivator assessed as sum of isoniazid plus hydrazones, acetylisoniazid, isonicotinic acid and isonicotinuric acid level in urine at 681 mg, iv infused at constant rate 5.4 min measured 150 mins after start of drug injection by colorimetry; conditions: in vivo, 2.5 h
[28] = Drug excretion in human subject rapid inactivator assessed as sum of isoniazid plus hydrazones, acetylisoniazid, isonicotinic acid and isonicotinuric acid level in urine at 670 mg, iv infused at constant rate 5.2min measured 373 mins after start of drug injection by colorimetry; conditions: in vivo
[29] = Drug excretion in human subject rapid inactivator assessed as total isonicotinoyl compound level in urine at 670 mg, iv infused at constant rate 5.2min measured 32 mins after start of drug injection by colorimetry; conditions: in vivo
[30] = Drug excretion in human subject rapid inactivator assessed as total isonicotinoyl compound level in urine at 670 mg, iv infused at constant rate 5.2min measured 373 mins after start of drug injection by colorimetry; conditions: in vivo
[31] = Drug excretion in human subject slow inactivator assessed as total isonicotinoyl compound level in urine at 681 mg, iv infused at constant rate 5.4 min measured 524 mins after start of drug injection by colorimetry; conditions: in vivo
[32] = Drug excretion in human subject slow inactivator assessed as total isonicotinoyl compound level in urine at 681 mg, iv infused at constant rate 5.4 min measured 339.3 mins after start of drug injection by colorimetry; conditions: in vivo, 5.655 h

Drug excretion [1]: 38.1 mg
Drug metabolism [2]: 43.8 %molar
Drug excretion [3]: 37.21 mg
Drug excretion [4]: 50.1 mg
Drug excretion [5]: 27.3 mg
Drug excretion [6]: 32 mg
Drug excretion [7]: 43.4 mg
Drug excretion [8]: 97%
Drug excretion [9]: 30.44 mg
Drug metabolism [10]: 32.3 %molar
Drug excretion [11]: 10.68 mg
Drug excretion [12]: 57.7 mg
Drug excretion [13]: 14.26 mg
Drug excretion [14]: 16.5 mg
Drug metabolism [15]: 18.1 %molar
Drug excretion [16]: 12.82 mg
Drug excretion [17]: 49.9 mg
Drug excretion [18]: 38.8 mg
Drug excretion [19]: 99.6%
Drug metabolism [20]: 21.3 %molar
Drug excretion [21]: 40.5 mg
Drug excretion [22]: 9.44 mg
Drug metabolism [23]: 6.9 %molar
Drug excretion [24]: 29 mg
Drug excretion [25]: 39.7 mg
Drug excretion [26]: 20.23 mg
Drug excretion [27]: 38.71 mg
Drug excretion [28]: 28 mg
Drug excretion [29]: 45.9 mg
Drug excretion [30]: 28.7 mg
Drug excretion [31]: 10.4 mg
Drug excretion [32]: 32 mg
SMILES: NNC(=O)c1ccncc1 [ISONIAZID]
